The subject of assay [1] is optic nerve (retinal ganglion cell axons). Kind of assay: optic nerve transection after intravitreal injection, neurofilament Western blot. The class given is in vivo, rat. The settings on record: 5 μl of 100 mM intravitreal, 24 hours before transection; 4 days after transection. As to the method: FIG. 9 illustrates optic nerve transection after intravitreal injection of NAD biosynthetic substrates NAD, NMN, NmR, or Nam was injected into intravitreal compartment of left rat eye and allowed to incorporate retinal ganglion cells for 24 hours after which, left optic nerve was transected by eye enucleation and right and left optic nerves were collected at 4 days after transection and analyzed by Western blotting in which optic nerves transected from […] without any treatment prior to axotomy were used for negative control; showing in the figure, the quantitative analysis data of percentage of remaining neurofilament immunoreactivity from transected optic nerve relative to non-transected±S.D.
Administration of NAD biosynthetic substrates and optic Nerve transection. Nam, NMN, NmR, or NAD was dissolved in PBS at the concentration of 100 mM or 1 M. Each of 5 μl solution was injected into left intravitreal component under the anesthesia at a rate of […]. The left optic nerve was transected at 24 hours after intravitreal injection and optic nerve was recovered at indicated time. Optic nerve tissue was homogenized in 100 μl of a buffer containing 100 mM tris-HCl (pH 6.8), 1% SDS, and 1 mM DTT. Fifty μg of protein for each sample was analyzed by the Western blotting using anti-neurofilament antibody 2H3 (Developmental Studies Hybridoma Center) and peroxidase-conjugated secondary antibody (Jackson ImmunoResearch). The degeneration rate was calculated from the ratio of the neurofilament immunoreactivity of transected vs. contralateral nerves.
Transection of optic nerve is an in vivo model which can be used to investigate mechanisms leading to Wallerian degeneration and following retinal ganglion cell (RGC) death observed in human diseases such as glaucoma. In the C57BL/Wlds mouse strain, optic nerve degeneration during Wallerian degeneration after axotomy is dramatically slowed. In addition, intravitreal injection is used for screening of compounds that protect RGC axon from degeneration in vivo and thus we can asses the axon protective effect of each NAD biosynthetic substrates in vive by intraocular injection of compounds including NAD, NMN, NmR, and Nam. From in vitro Wallerian degeneration assay, 1 mM of NAD, NMN, and NmR in the culture media is enough to protect axon from degeneration. We initially injected 5 μl of 100 mM or 1 M NAD solution into left intravitreal compartment. After 24 hours incubation, left optic nerve was transected and control (right) and axotomized (left) optic nerve were collected at 3, 4, and 5 days after transection. Neurofilament immunoreactivity from the axotomized optic nerve was measured and normalized against the value obtained from the right side of the optic nerve.

Assay [2] concerns acetyl Co-A carboxylase (ACC). Kind of assay: ACC phosphorylation in Neuro2a cells (phospho-specific western blot). Type of assay: cell-based. The note with it: resveratrol 10 μM or AICAR 1 mM; all time points to 72 hr. How it is done:
FIG. 10A-D illustrates resveratrol activation of AMP kinase in Neuro2a cells. Neuro2a cells were switched to serum-starvation medium (medium containing 0.2% FCS) and treated with DMSO (vehicle control), resveratrol (10 μM) or 5-aminoimidazole-4-carboxamide-1-β-D-ribofuranoside (AICAR) (1 mM). […] Very low levels of phosphorylated AMPK and ACC were detected in DMSO treated control cells at all time points tested. (C) Densitometric analysis of changes in phosphorylated AMPK and (D) phosphorylated ACC under different conditions is shown.
Plasmids and viruses. […] Quantitative RT-PCR analysis was performed using Sybr-Green methodology on a model 7700 instrument (Applied Biosystems) as previously described (Araki et al., 2004, Science 305:1010-1013). […]
To explore the role of polyphenols, in particular, of resveratrol, we tested whether resveratrol altered the activity of AMPK in neuronal cells. […] To confirm that AMPK activation by resveratrol results in typical AMPK-mediated downstream responses, we monitored phosphorylation of ACC (acetyl Co-A carboxylase), a primary target of activated AMPK. […] To examine a potential mechanism of resveratrol-mediated AMPK activation, we measured cellular ATP levels as a decreased ATP:AMP ratio increases the phosphorylation of AMPK. […]
A general note: Immunoblotting shows a protein as a band on a membrane.

Assay [3] deals with neuro2A cells. Kind of assay: cellular ATP levels, luciferase-based assay in neuro2A cells. Type of assay: cell-based. As to the method:
To explore the role of polyphenols, in particular, of resveratrol, we tested whether resveratrol altered the activity of AMPK in neuronal cells. Neuro2a neuroblastoma cells were treated with resveratrol (10 μM) and AMPK activation was examined using phospho-AMPK specific antibodies. […] To confirm that AMPK activation by resveratrol results in typical AMPK-mediated downstream responses, we monitored phosphorylation of ACC (acetyl Co-A carboxylase), a primary target of activated AMPK. […] To examine a potential mechanism of resveratrol-mediated AMPK activation, we measured cellular ATP levels as a decreased ATP:AMP ratio increases the phosphorylation of AMPK. ATP levels were monitored using a luciferase-based assay in neuro2A cells treated with resveratrol or Oligomycin, an inhibitor of mitochondrial oxidative phosphorylation and therefore ATP production. While the ATP concentration dropped from 5.874 μM in DMSO-treated cells (control) to 0.976 μM in Oligomycin treated cells within 2 hr, the ATP concentration in resveratrol-treated Neuro2a cells was not altered from control either at 2 hr (6.33 μM) or 24 hr (6.42 μM).

Assay [4] has as its system neuro2A cells. Kind of assay: Neuro2a cell proliferation, Ki67 immunocytochemistry. Type of assay: cell-based. The settings on record: 0.2% fetal calf serum; AICAR 1 mM or resveratrol 10 μM; 24 h after plating; DMSO controls 50%. How it is done: Neuro2a cells are a widely used as in vitro model of neuronal differentiation. These cells cease to proliferate and begin to differentiate, as evidenced by neurite outgrowth, in response to serum starvation, retinoic acid, or growth factors like neurotrophins and GDNF family ligands. […] Neuro2a cells grown under serum starvation conditions (0.2% fetal calf serum) were treated with AICAR (1 mM) or resveratrol (10 μM).

The next assay has as its system ACC. Kind of assay: ACC phosphorylation in brain after intraperitoneal injection. The class given is in vivo, mice. The note with it: single intraperitoneal injection 20 mg/kg; within 2 h. How it is done:
FIG. 15A-E illustrates that resveratrol treatment causes AMPK phosphorylation in the brain. Two-month-old male mice were injected intraperitoneally with resveratrol (20 mg/kg body weight) or DMSO (vehicle) (n=3, for each treatment). Two hr after treatment, the animals were sacrificed and brain lysates were prepared. […] Total AMPK and ACC levels are shown as loading controls in B and D. (E) Densitometry was used to quantify the increased level of AMPK and ACC phosphorylation in the brain of resveratrol treated animals (* p<0.005).
To extend our in vitro results, we tested whether treating mice with resveratrol activates AMPK in the brain. We injected intraperitoneally 2-month-old male mice with either resveratrol (20 mg/kg body weight) or DMSO (vehicle) (n=3 for each group).

SMILES strings stand for the structures.

Regarding `NC(=O)c1cccnc1` [Nam, nicotinamide], the “neurofilament immunoreactivity of axotomized optic nerve, of non-axotomized optic nerve” value in assay [1] is listed as “did not show any difference from the control animals”.

In the case of `Oc1ccc(C=Cc2cc(O)cc(O)c2)cc1` [resveratrol], the ACC phosphorylation entry in assay [2] is reported as “robust phosphorylation of ACC”. For the same molecule, the ATP concentration with neuro2A cells [3] (2 hr) worked out at 6.33 µM; in the assay with neuro2A cells [3] (24 hr) it was 6.42 µM. The “proliferating cells (Ki67)” value in the assay with neuro2A cells [4] was found to be 11%. Moreover, the “increased ACC phosphorylation in the brain” value in the assay with ACC was 2.1 fold.

The values above are taken from patent publication US20160367497A1, “METHODS AND COMPOSITIONS FOR TREATING NEUROPATHIES” (Washington University, priority 2007, published 2016).
